Test results: US8088806B2 (Achillion Pharmaceuticals, Inc., priority 2005, dated 2012)
Where two headings read alike, the source gives them in different places.

Tested on: HCV replicon
Experiment: Replicon based assay of HCV replication inhibition (NPT ELISA)
Format: cell-based, Hepatitis C virus
Settings: Hepatitis C virus, read-out: Activity
Outline: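 Huh-7 cells carrying a bicistronic HCV replicon (neo, EMCV-IRES-driven NS3–NS5B) treated overnight after seeding with usually 6 concentrations, 10 to 0.03 micromolar, for three days at 37° C without G418. Replication read as NPT level by captured ELISA; matched-DMSO wells and interferon alpha as controls.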

[1] = replicon based assay of HCV replication inhibition, Table IV

SMILES	EC50 [1]	EC50
OCc1cc2cc(-c3csc(Nc4ccc(OCC5CCCCC5)c(C(F)(F)F)c4)n3)ccc2o1 [compound 765, (5-(2-(4-(cyclohexylmethoxy)-3-(trifluoromethyl)phenylamino)thiazol-4-yl)benzofuran-2-yl)methanol]	< 1000 nM	
FC(F)(F)c1ccc(-c2csc(Nc3ccc(OCC4CCCCC4)c(C(F)(F)F)c3)n2)nc1 [compound 766, N-(4-(cyclohexylmethoxy)-3-(trifluoromethyl)phenyl)-4-(5-(trifluoromethyl)pyridin-2-yl)thiazol-2-amine]	< 1000 nM	
COc1ncc(-c2csc(Nc3ccc(OCC4CCCCC4)c(C(F)(F)F)c3)n2)c(OC)n1 [compound 767, N-(4-(cyclohexylmethoxy)-3-(trifluoromethyl)phenyl)-4-(2,4-dimethoxypyrimidin-5-yl)thiazol-2-amine]	< 1000 nM	
Cc1ccnc(-c2csc(Nc3ccc(OCC4CCCCC4)c(C(F)(F)F)c3)n2)c1 [compound 768, N-(4-(cyclohexylmethoxy)-3-(trifluoromethyl)phenyl)-4-(4-methylpyridin-2-yl)thiazol-2-amine]	< 1000 nM	
CCOC(=O)c1csc(-c2csc(Nc3ccc(OCC4CCCCC4)c(C(F)(F)F)c3)n2)n1 [compound 769, ethyl 2-(2-(4-(cyclohexylmethoxy)-3-(trifluoromethyl)phenylamino)thiazole-4-yl)thiazole-4-carboxylate]	< 1000 nM	
CCCCCCCCOc1ccc(Nc2nc(-c3nc4ccccc4n3C)cs2)cc1C(F)(F)F [compound 770, N-(3-(trifluoromethyl)-4-(octyloxy)phenyl)-4-(1-methyl-1H-benzo[d]imidazol-2-yl)thiazol-2-amine]	< 1000 nM	
FC(F)(F)c1cccc(-c2csc(Nc3ccc(OCC4CCCCC4)c(C(F)(F)F)c3)n2)c1 [compound 771, N-(4-(cyclohexylmethoxy)-3-(trifluoromethyl)phenyl)-4-(3-(trifluoromethyl)phenyl)thiazol-2-amine]	< 1000 nM	
COc1cccc(-c2csc(Nc3ccc(OCC4CCCCC4)c(C(F)(F)F)c3)n2)n1 [compound 772, N-(4-(cyclohexylmethoxy)-3-(trifluoromethyl)phenyl)-4-(6-methoxypyridin-2-yl)thiazol-2-amine]	< 1000 nM	
COc1ccc2cc(-c3csc(Nc4ccc(OCC5CCCCC5)c(C(F)(F)F)c4)n3)ccc2c1 [compound 773, N-(4-(cyclohexylmethoxy)-3-(trifluoromethyl)phenyl)-4-(2-methoxynaphthalen-6-yl)thiazol-2-amine]	< 1000 nM	
FC(F)(F)c1cc(Nc2nc(-c3cccc4cccnc34)cs2)ccc1OCC1CCCCC1 [compound 774, N-(4-(cyclohexylmethoxy)-3-(trifluoromethyl)phenyl)-4-(quinolin-8-yl)thiazol-2-amine]	< 1000 nM	
COc1ncc(-c2csc(Nc3ccc(OC/C=C(\C)CCC=C(C)C)c(C(F)(F)F)c3)n2)cn1 [compound 775, N-(4-((E)-3,7-dimethylocta-2,6-dienyloxy)-3-(trifluoromethyl)phenyl)-4-(2-methoxypyrimidin-5-yl)thiazol-2-amine]	< 1000 nM	
COc1ncc(-c2csc(Nc3ccc(OCCC(C)CCCC(C)C)c(C(F)(F)F)c3)n2)cn1 (stereo not drawn) [compound 776, N-(4-(3,7-dimethyloctyloxy)-3-(trifluoromethyl)phenyl)-4-(2-methoxypyrimidin-5-yl)thiazol-2-amine]	< 1000 nM	
CCCCCCCCSc1ccc(Nc2nc(-c3cnc(OC)nc3)cs2)cc1C(F)(F)F [compound 777, N-(3-(trifluoromethyl)-4-(octylthio)phenyl)-4-(2-methoxypyrimidin-5-yl)thiazol-2-amine]	< 1000 nM	
COc1ncc(-c2csc(Nc3ccc(C(=O)N4CCC5CCCCC5C4)c(C(F)(F)F)c3)n2)cn1 (stereo not drawn) [compound 778, (4-(4-(2-methoxypyrimidin-5-yl)thiazol-2-ylamino)-2-(trifluoromethyl)phenyl) (octahydroisoquinolin-2(1H)-yl)methanone]	1000 to 10000 nM	
CCCCCCCCOC(=O)c1ccc(Nc2nc(-c3cnc(OC)nc3)cs2)cc1C(F)(F)F [compound 779, octyl 4-(4-(2-methoxypyrimidin-5-yl)thiazol-2-ylamino)-2-(trifluoromethyl)benzoate]	< 1000 nM	
CCCCCCC#Cc1ccc(Nc2nc(-c3cnc(OC)nc3)cs2)cc1C(F)(F)F [compound 780, N-(3-(trifluoromethyl)-4-(oct-1-ynyl)phenyl)-4-(2-methoxypyrimidin-5-yl)thiazol-2-amine]	< 1000 nM	
COc1ncc(-c2csc(Nc3ccc(N4CCC5CCCCC5C4)c(C(F)(F)F)c3)n2)cn1 (stereo not drawn) [compound 781, N-(3-(trifluoromethyl)-4-(octahydroisoquinolin-2(1H)-yl)phenyl)-4-(2-methoxypyrimidin-5-yl)thiazol-2-amine]	< 1000 nM	
CCCCCCCCOc1ccc(Nc2nc(-c3ccc(O)cc3O)cs2)cc1C(F)(F)F [compound 782, 4-(2-(3-(trifluoromethyl)-4-(octyloxy)phenylamino)thiazol-4-yl)benzene-1,3-diol]	< 1000 nM	
CCCCCCCCOc1ccc(Nc2nc(-c3cccn3C)cs2)cc1C(F)(F)F [compound 783, N-(3-(trifluoromethyl)-4-(octyloxy)phenyl)-4-(1-methyl-1H-pyrrol-2-yl)thiazol-2-amine]	< 1000 nM	
CCCCCCCCOc1ccc(Nc2nc(C(=O)CNc3nccs3)cs2)cc1C(F)(F)F [compound 784, 1-(2-(3-(trifluoromethyl)-4-(octyloxy)phenylamino)thiazol-4-yl)-2-(thiazol-2-ylamino)ethanone]	< 1000 nM	

SMILES	EC50 [1]	EC50
CCCCCCCCOc1ccc(Nc2nc(C(=O)CSc3ncc[nH]3)cs2)cc1C(F)(F)F [compound 785, 2-(1H-imidazol-2-ylthio)-1-(2-(3-(trifluoromethyl)-4-(octyloxy)phenylamino)thiazol-4-yl)ethanone]	1000 to 10000 nM	
CCCCCCCCOc1ccc(Nc2nc(C3=CSC4=NCCCN34)cs2)cc1C(F)(F)F [compound 786, N-(3-(trifluoromethyl)-4-(octyloxy)phenyl)-4-(6,7-dihydro-5H-thiazolo[3,2-a]pyrimidin-3-yl)thiazol-2-amine]	< 1000 nM	
CCCCCCCCOc1ccc(Nc2nc(-c3cccnc3)c([N+](=O)[O-])s2)cc1C(F)(F)F [compound 787, N-(3-(trifluoromethyl)-4-(octyloxy)phenyl)-5-nitro-4-(pyridin-3-yl)thiazol-2-amine]	1000 to 10000 nM	
CCCCCCCCOc1cc([N+](=O)[O-])c(Nc2nc(-c3cccnc3)c([N+](=O)[O-])s2)cc1C(F)(F)F [compound 788, N-(5-(trifluoromethyl)-2-nitro-4-(octyloxy)phenyl)-5-nitro-4-(pyridin-3-yl)thiazol-2-amine]		1000 to 10000 nM
CCCCCCC#Cc1ccc(Nc2nc(-c3cccnc3)cs2)cc1C(F)(F)F [compound 789, N-(3-(trifluoromethyl)-4-(oct-1-ynyl)phenyl)-4-(pyridin-3-yl)thiazol-2-amine]	< 1000 nM	
CCOC(=O)Cc1csc(Nc2nc(-c3cccnc3)cs2)n1 [compound 790, ethyl 2-(2-(4-(pyridin-3-yl)thiazol-2-ylamino)thiazol-4-yl)acetate]	> 10000 nM	
c1cncc(-c2csc(Nc3nc4ccccc4[nH]3)n2)c1 [compound 791, N-(4-(pyridin-3-yl)thiazol-2-yl)-1H-benzo[d]imidazol-2-amine]	> 10000 nM	
O=S1(=O)CCN(Cc2ccc(Nc3nc(-c4cccnc4)cs3)cc2)CC1 [compound 792]	> 10000 nM	
FC(F)(F)c1ccc(-c2cc(Nc3nc(-c4cccnc4)cs3)on2)cc1 [compound 793, 3-(4-(trifluoromethyl)phenyl)-N-(4-(pyridin-3-yl)thiazol-2-yl)isoxazol-5-amine]	> 10000 nM	
Cc1ccc2nc(Nc3nc(-c4cccnc4)cs3)sc2c1 [compound 794, 6-methyl-N-(4-(pyridin-3-yl)thiazol-2-yl)benzo[d]thiazol-2-amine]	> 10000 nM	
CCCCOC(=O)c1n[nH]c(Nc2nc(-c3cccnc3)cs2)n1 [compound 795, butyl 5-(4-(pyridin-3-yl)thiazol-2-ylamino)-1H-1,2,4-triazole-3-carboxylate]	> 10000 nM	
c1ccc(-c2nsc(Nc3nc(-c4cccnc4)cs3)n2)cc1 [compound 796, 3-phenyl-N-(4-(pyridin-3-yl)thiazol-2-yl)-1,2,4-thiadiazol-5-amine]	> 10000 nM	
CC(C)(C)c1csc(Nc2nc(-c3cccnc3)cs2)n1 [compound 797, 4-tert-butyl-N-(4-(pyridin-3-yl)thiazol-2-yl)thiazol-2-amine]	> 10000 nM	
FC(F)(F)c1cc(Nc2nc(-c3cccnc3)cs2)ccc1OCCCCc1cccs1 [compound 799, N-(4-(4-(thiophen-2-yl)butoxy)-3-(trifluoromethyl)phenyl)-4-(pyridin-3-yl)thiazol-2-amine]	< 1000 nM	
FC(F)(F)c1cc(Nc2nc(-c3cccnc3)cs2)ccc1OCCCc1cccnc1 [compound 800, N-(4-(3-(pyridin-3-yl)propoxy)-3-(trifluoromethyl)phenyl)-4-(pyridin-3-yl)thiazol-2-amine]	< 1000 nM	
CCCCCCCCOc1ccc(Nc2nc(C3=CSC4=NC(=O)CN34)cs2)cc1C(F)(F)F [compound 801, 3-(2-(3-(trifluoromethyl)-4-(octyloxy)phenylamino)thiazol-4-yl)imidazo[2,1-b]thiazol-6(SH)-one]	< 1000 nM	
CN(CCOc1ccc(Nc2nc(-c3cccnc3)cs2)cc1C(F)(F)F)c1ccccc1 [compound 802]	< 1000 nM	
COc1ncc(-c2csc(Nc3ccc(OCCCC4CCCC4)c(C(F)(F)F)c3)n2)cn1 [compound 803, N-(4-(3-cyclopentylpropoxy)-3-(trifluoromethyl)phenyl)-4-(2-methoxypyrimidin-5-yl)thiazol-2-amine]	< 1000 nM	
FC(F)(F)c1cc(Nc2nc(-c3cccnc3)cs2)ccc1OCCCCc1ccccc1 [compound 804, N-(4-(4-phenylbutoxy)-3-(trifluoromethyl)phenyl)-4-(pyridin-3-yl)thiazol-2-amine]	< 1000 nM	
